Reference: PMC10724293, “New ruthenium-xanthoxylin complex eliminates colorectal cancer stem cells by targeting the heat shock protein 90 chaperone” (Cell Death & Disease, 2023)

Assays:
4T1 = assay: Alamar blue cytotoxicity assay; type: cell-based, mouse; conditions: 72 h, read-out: IC50 and 95%CI
Method: (§1) The Alamar blue assay was used to determine cell viability as previously described. Cells were seeded into 96-well plates at a density of 7 × 10^3 cells per well for adherent cells or 3 × 10^4 cells per well for suspended cells. The drug was added to each well after 24 h of incubation for adherent cells or immediately for suspended cells and incubated for an additional 72 h. […] Each well received 100 µM resazurin (Sigma-Aldrich Co. St. Louis, MO, United States) four (for cell lines) or 24 (for primary culture) h before the end of the incubation. A SpectraMax 190 Microplate Reader (Molecular Devices, Sunnyvale, CA, USA) was used to measure absorbance at 570 and 600 nm.

B16-F10 = assay: Alamar blue cytotoxicity assay; type: cell-based, mouse; conditions: 72 h, read-out: IC50 and 95%CI
Method: as §1

[1] = system: CR01 (colorectal carcinoma); assay: Alamar blue viability of primary cancer cells; type: cell-based, human; conditions: primary CRC (first listed); 25 μg/ml (RXC 31.3 μM, DOX 46 μM); 96 h
Method: as §1
(§2) CR03 (metastatic cholangiocarcinoma) CR04 (malignant papillary mesothelioma) […]
(§3) Figure S1. […] Cells were exposed to 25 […]
(§4) measured after 96 h using the Alamar blue assay. The data are presented as the […]
(§5) mean ± S.E.M. of four replicates. * P < 0.05 compared to CTL by one-way ANOVA […]
(§6) followed by Dunnett's multiple comparisons test. […]

[2] = system: CR03 (metastatic cholangiocarcinoma); assay: Alamar blue viability of primary cancer cells; type: cell-based, human; conditions: 25 μg/ml (RXC 31.3 μM, DOX 46 μM), 96 h
Method: as §1, §2, §3, §4, §5, §6

[3] = system: CR04 (malignant papillary mesothelioma); assay: Alamar blue viability of primary cancer cells; type: cell-based, human; conditions: primary papilliferous malignant mesothelioma; 25 μg/ml (RXC 31.3 μM, DOX 46 μM); 96 h
Method: as §1, §2, §3, §4, §5, §6

[4] = system: CR02 (colorectal carcinoma); assay: Alamar blue viability of primary cancer cells; type: cell-based, human; conditions: primary CRC (second listed); 25 μg/ml (RXC 31.3 μM, DOX 46 μM); 96 h
Method: as §1, with “nm. […]” for “nm.”

HCT116 cells [5] = assay: Mitochondrial transmembrane potential, rhodamine 123 flow cytometry; type: cell-based, human; conditions: 24 h, all concentrations tested
Method: To ensure mitochondrial transmembrane potential, the cells were stained with rhodamine 123 (5 µg/ml, Sigma-Aldrich Co.) at 37 °C for 15 min in the dark. The cells were then washed with saline and incubated in saline for 30 min in the dark at 37 °C, and cell fluorescence was determined using flow cytometry.

HCT116 cells [6] = assay: CD133 expression by flow cytometry; type: cell-based, human; conditions: 10 μM, 24 h; control 32.0%
Method: For cell surface protein staining, cells were washed with incubation buffer (0.5% bovine serum albumin in PBS), and then antibodies were added and incubated for 1 h at room temperature. The cells were then washed with PBS, and cell fluorescence was measured using flow cytometry. To select viable cells for quantification of CD133-positive cells, YO-PRO-1 (Sigma-Aldrich Co.) was used.

HCT116 cells [7] = assay: Colonosphere assay; type: cell-based, human
Method: HCT116 cells, at densities of 1.25 × 10^5 cells/ml, were cultured in 24-well low adhesion plates (Corning, USA) in serum-free DMEM-F12 supplemented with 20 ng/ml bFGF (PeproTech, USA), 20 ng/ml EGF (PeproTech, USA), and B27 supplement (Invitrogen, Carlsbad, CA, USA). On the following day, the cells were subjected to drug concentrations of 20, 10, 5, 2.5, and 1.25 μM. The cells were photographed using an optical microscope after 0, 24, 48, and 72 h of incubation (Leica, DMI8). Furthermore, 10 µM RXC-treated cells were stained with acridine orange/PI and analyzed by confocal microscopy or stained with anti-CD133 antibody plus YO-PRO-1 and analyzed by flow cytometry.

[8] = system: HepG2 human hepatocellular carcinoma cells; conditions: HepG2 in monolayers or 3D multicellular cancer spheroids; cited from earlier work

Question: For cis-[Ru(phen)2(xant)](PF6) [RXC], which IC50 (4T1) is on record?
Answer: 9.1 µM

Question: What about the IC50 (B16-F10) of the same substance?
Answer: 2.58 µM

Question: And the reduced cell viability [1]?
Answer: 79.8%

Question: What about the reduced cell viability [2] of the same substance?
Answer: 79.2%

Question: What about the reduced cell viability [3] of the same substance?
Answer: 79.6%

Question: What about the reduced cell viability [4] of the same substance?
Answer: 37.4%

Question: What about the mitochondrial transmembrane potential (HCT116 cells [5]) of the same substance?
Answer: mitochondrial depolarization

Question: What about the “HCT116 CD133-positive cells” value (HCT116 cells [6]) of the same substance?
Answer: 10.1%

Question: What about the “HCT116 CD133-positive cells in colonospheres” value (HCT116 cells [7]; 10 μM, 24 h, control 47.8%) of the same substance?
Answer: 19.5%

Question: And the colonosphere formation (HCT116 cells [7]; 1.25-20 μM, 24, 48, 72 h)?
Answer: reduced colonosphere formation

Question: And the cytotoxicity [8]?
Answer: potent cytotoxicity
